Results from patent publication US11071768B2, “Caspofungin compositions for inhalation” (TRILOGY THERAPEUTICS, INC., priority 2018, dated 2021).
In brackets after ≈: the same amount, converted by molar mass. Several values for one entry are separate records, joined by “and”; a condition that tells them apart may be missing. Equal values may be shown once. Read-outs that look alike come from different tables or passages of the source.

Legend:
[1] = Toxicology observations in the rat pharmacokinetic study; assay type: in vivo; conditions: male rats, nose-only inhalation or intravenous injection
Protocol: A detailed, hand-held physical examination was conducted on all animals once during the quarantine period (prior to randomization). During the treatment period, the animals were observed daily for mortality or evidence of moribundity; these checks were separated by a minimum of four hours. Daily cage-side clinical observations were conducted during exposure, and daily hand-held clinical observations were conducted before and after exposure. Observations included, but were not limited to the following: changes in the skin and fur, eyes, and mucous membranes; effects on the respiratory, circulatory, autonomic and central nervous systems; and effects on somatomotor activity and behavior pattern.
Body Weights and Body Weight Changes: Body weights were determined one day after animal receipt; at randomization; and prior to exposure on Study Day 1, 2, 3 and 7 (as applicable based on scheduled euthanization).
Plasma and Tissue Samples/Necropsy: Whole blood samples were collected from three animals per time-point at approximately 0.5, 1, 2, 4, 8, 12, 24 and 48 hours and 7 days after dose administration for plasma drug level determination. Rats were anesthetized with 70% CO2/30% air and blood was collected from the retro-orbital plexus and placed into tubes containing anticoagulant (EDTA). Blood samples were placed on ice immediately following collection and processed (i.e., centrifuged) to plasma. The samples were then stored frozen (at approximately −70° C.) until analyzed. All study animals surviving to scheduled necropsy were euthanized by an overdose of an intraperitoneal injection of sodium pentobarbital at […]. Tissue specimens (lung, liver and kidney) were collected from three animals per time point at 0.5, 2, 24 and 48 hours and 7 days after dose administration. All tissue specimens were stored frozen at approximately −70° C. until analyzed.

Aspergillus fumigatus = conditions: cited from earlier work
Aspergillus flavus = conditions: cited from earlier work
Aspergillus nidulans = conditions: cited from earlier work
Aspergillus niger = conditions: cited from earlier work
Aspergillus terrus = conditions: cited from earlier work
Aspergillus versicolor = conditions: 75 isolates; cited from earlier work
Candida albicans = conditions: 2869 isolates; cited from earlier work
Candida glabrata = conditions: 747 isolates; cited from earlier work
Candida tropicalis = conditions: 625 isolates; cited from earlier work
Candida krusei = conditions: 136 isolates; cited from earlier work
Candida parapsilosis = conditions: 759 isolates; cited from earlier work
Candida guilliermondii = conditions: 61 isolates; cited from earlier work
All Candida spp. = conditions: All Candida spp., 5,346 isolates; cited from earlier work
[2] = 2 mg/kg, cited from earlier work
[3] = Storage stability of lyophilized formulations by HPLC; assay type: physicochemical; conditions: for RT 26.1 (hydrolysis degradation product) / RT 37.3 (dimerization degradation product) / HPLC purity % (total caspofungin): lyophilized
Protocol: General: HPLC analysis was carried out on a Waters 2695 separations module equipped with an autosampler and a Waters 996 photodiode array detector. The HPLC method is described below:
Aliquots of 0.5 mL of each formulation listed in Table 3 were frozen on dry ice for 30 min and lyophilized for 40 h to obtain white cakes. A portion of each cake was reconstituted in 1 mL of deionized water and analyzed by HPLC. The vials were stoppered, crimp sealed and placed on stability at 5° C. and 40° C.
Each liquid formulation in Table 5 was equally split into two vials, frozen on dry ice for 1 h and lyophilized for 90 h to obtain white cakes. The vials were stoppered, crimp sealed and placed on stability at 5° C. and 40° C.
The liquid formulations to be lyophilized were prepared according to Table 6. Aliquots of 0.5 mL of each liquid formulation were placed in 3 mL glass vials, frozen on dry ice for 40 min. The vials were partially stoppered with lyo septa and lyophilized for 5 days. The vials were placed on stability at 5° C., ambient (dark) and −20° C.
Fourteen 0.5 mL aliquots of each liquid formulation prepared in part C were placed in 14 3-mL glass vials. The vials were frozen on dry ice for about 1 h and lyophilized for 5 days to obtain white cake. The vials were stoppered, crimp sealed and placed on stability at −20° C., 5° C., and ambient (dark) conditions.
One vial of the lyophilized cake was reconstituted in 1 mL of deionized water to obtain a 10 mg/mL caspofungin diacetate solution. An aliquot (55 μL) was removed and diluted with 1 mL of deionized water for HPLC analysis.
Tables 11, 12, 13, and 14 summarize the total caspofungin (%) as determined by HPLC present for each formulation prepared prior to storage and after several storage conditions. RT as below refers to HPLC retention time. The product with a retention time of 26.1 minutes is a hydrolysis degradation product while the product with a retention time of 37.3 minutes is a dimerization degradation product that is obtained from the dimerization of the hydrolysis products.

[4] = KF water content of lyophilized formulations; assay type: physicochemical; conditions: lyo cake, T0; listed as API (lyo process)
Description: Tables 17 and 18 summarize the % water content measured of the prepared formulations.

[5] = tested on: Aspergillus fumigatus ATCC 13073; assay: In vitro broth microdilution assay (CLSI); assay type: cell-based
Protocol: (§1) The antifungal potency of the test article(s) was measured using the in vitro broth microdilution assay under assay conditions described by the Clinical and Laboratory Standards Institute. In this assay, the Minimum Inhibitory Concentration (MIC) is defined as the lowest concentration of an agent that causes a specified reduction in visible growth of the microorganism. The Minimal Effective Concentration (MEC) is defined as the lowest concentration of an agent that leads to the growth of small, rounded, compact hyphal forms as compared to the hyphal growth seen in the growth control well. In this study, MIC values are determined for the 9 Candida species and Cryptococcus neoformans. MEC values are determined for 3 filamentous fungi (2 Aspergillus fumigatus and Trichophyton rubrum). Test articles were prepared as the following:
(§2) The 3.2 mg/mL working stock solution was 2-fold diluted serially in 0.9% NaCl to prepare a total of eleven 50-fold stock solutions, concentrations ranging from 3.2 to 0.003 mg/mL. A 4 μL aliquot of each dilution was added to 196 μL of broth medium seeded with the organism suspension in wells of a 96 well plate (fungal cell count: 1×10^3 to 1×10^4 colony forming units per mL). The final volume was 200 μL in each well. Following incubation, the test plates were visually examined and wells were scored for growth or complete growth inhibition to define the MIC values. Microscopy examination was used to determine the MEC values. Each test substance was evaluated in duplicate and the results below are the duplicate test values. Vehicle-control and an active reference agent were used as blank and positive controls, respectively.

[6] = tested on: Aspergillus fumigatus ATCC204305; assay: In vitro broth microdilution assay (CLSI); assay type: cell-based
Protocol: as §1, §2

[7] = tested on: Candida albicans ATCC44858; assay: In vitro broth microdilution assay (CLSI); assay type: cell-based
Protocol: as §1, §2

[8] = tested on: Candida albicans ATCC90028; assay: In vitro broth microdilution assay (CLSI); assay type: cell-based
Protocol: as §1, §2

[9] = tested on: Candida albicans Azole-R (20183.073); assay: In vitro broth microdilution assay (CLSI); assay type: cell-based
Protocol: as §1, §2

[10] = tested on: Candida albicans Azole-R (20186.025); assay: In vitro broth microdilution assay (CLSI); assay type: cell-based
Protocol: as §1, §2

[11] = tested on: Candida glabrata ATCC 36583; assay: In vitro broth microdilution assay (CLSI); assay type: cell-based
Protocol: as §1, §2

Candida krusei ATCC 6258 = assay: In vitro broth microdilution assay (CLSI); assay type: cell-based
Protocol: as §1, §2

[12] = tested on: Candida parapsilosis ATCC 22019; assay: In vitro broth microdilution assay (CLSI); assay type: cell-based
Protocol: as §1, §2

[13] = tested on: Candida tropicalis ATCC 200956; assay: In vitro broth microdilution assay (CLSI); assay type: cell-based
Protocol: as §1, §2

[14] = tested on: Cryptococcus neoformans ATCC 24067; assay: In vitro broth microdilution assay (CLSI); assay type: cell-based
Protocol: as §1, §2

[15] = tested on: Trichophyton rubrum ATCC 10218; assay: In vitro broth microdilution assay (CLSI); assay type: cell-based
Protocol: as §1, §2

CC[C@H](C)C[C@H](C)CCCCCCCCC(=O)N[C@H]1C[C@@H](O)[C@@H](NCCN)NC(=O)[C@@H]2[C@@H](O)CCN2C(=O)[C@H]([C@H](O)CCN)NC(=O)[C@H]([C@H](O)[C@@H](O)c2ccc(O)cc2)NC(=O)[C@@H]2C[C@@H](O)CN2C(=O)[C@H]([C@@H](C)O)NC1=O [caspofungin]
Clinical signs of toxicity [1]: no clinical signs of toxicity
Effects on body weight [1]: no effects on body weight
Gross necropsy findings [1]: no gross necropsy findings
Mortality [1]: no test-article related mortality
MIC90 Average (Geometric Mean MIC) (Aspergillus fumigatus; 56 isolates): 0.25 µg/mL (≈ 0.229 µM)
MIC90 Range (Aspergillus fumigatus; 56 isolates): 0.12 to 4 µg/mL
MEC Average (Mode) (Aspergillus fumigatus; 1691 isolates): 0.25 µg/mL
MEC Range (Aspergillus fumigatus; 1691 isolates): 0.016 to 32 µg/mL
MIC90 Average (Geometric Mean MIC) (Aspergillus flavus; 13 isolates): 0.2 µg/mL (≈ 0.183 µM)
MIC90 Range (Aspergillus flavus; 13 isolates): 0.06 to 2 µg/mL
MEC Average (Mode) (Aspergillus flavus; 432 isolates): 0.06 µg/mL
MEC Range (Aspergillus flavus; 432 isolates): 0.016 to 32 µg/mL
MIC90 Average (Geometric Mean MIC) (Aspergillus nidulans; 13 isolates): 0.44 µg/mL (≈ 0.402 µM)
MIC90 Range (Aspergillus nidulans; 13 isolates): 0.2 to 4 µg/mL
MEC Average (Mode) (Aspergillus nidulans; 192 isolates): 0.12 µg/mL
MEC Range (Aspergillus nidulans; 192 isolates): 0.032 to 16 µg/mL
MIC90 Average (Geometric Mean MIC) (Aspergillus niger; 10 isolates): 0.14 µg/mL (≈ 0.128 µM)
MIC90 Range (Aspergillus niger; 10 isolates): 0.06 to 0.5 µg/mL
MEC Average (Mode) (Aspergillus niger; 440 isolates): 0.06 µg/mL
MEC Range (Aspergillus niger; 440 isolates): 0.016 to 2 µg/mL
MIC90 Average (Geometric Mean MIC) (Aspergillus terrus; 11 isolates): 0.12 µg/mL (≈ 0.11 µM)
MIC90 Range (Aspergillus terrus; 11 isolates): 0.06 to .2 µg/mL
MEC Average (Mode) (Aspergillus terrus; 385 isolates): 0.06 µg/mL
MEC Range (Aspergillus terrus; 385 isolates): 0.016 to 2 µg/mL
MEC Average (Mode) (Aspergillus versicolor): 0.12 µg/mL
MEC Range (Aspergillus versicolor): 0.032 to 2 µg/mL
MIC90 (Candida albicans): 0.06 µg/mL (≈ 0.0549 µM)
MIC90 (Candida glabrata): 0.06 µg/mL (≈ 0.0549 µM)
MIC90 (Candida tropicalis): 0.06 µg/mL (≈ 0.0549 µM)
MIC90 (Candida krusei): 0.25 µg/mL (≈ 0.229 µM)
MIC90 (Candida parapsilosis): 1 µg/mL (≈ 0.915 µM)
MIC90 (Candida guilliermondii): 1 µg/mL (≈ 0.915 µM)
MIC90 (All Candida spp.): 0.25 µg/mL (≈ 0.229 µM)
Kidney concentration, radiolabeled compound (Stone 2004) ([2]; 0.5 h): 9.15 µg/g
Kidney concentration, radiolabeled compound (Stone 2004) ([2]; 2 h): 10.60 µg/g
Kidney concentration, radiolabeled compound (Stone 2004) ([2]; 24 h): 11.40 µg/g

caspofungin diacetate
HPLC purity of control ([3]; Pure API control, as printed in the head): 99.72%)
RT 26.1 (hydrolysis degradation product) ([3]; 40° C. 1 week): 2.88%
RT 37.3 (dimerization degradation product) ([3]; 40° C. 1 week): 9.26%
HPLC purity % (total caspofungin) ([3]; 40° C. 1 week, listed as API (lyo process)): 82.32%
HPLC purity % (total caspofungin) ([3]; 40° C. 1 week, listed as Pure API): 88.48%
HPLC purity % (total caspofungin) ([3]; 40° C. 3 week): 75.71%
RT 26.1 (hydrolysis degradation product) ([3]; 40° C. 3 week): 6.09%
RT 37.3 (dimerization degradation product) ([3]; 40° C. 3 week): 4.38%
RT 26.1 (hydrolysis degradation product) ([3]; T0): 2.17%
RT 37.3 (dimerization degradation product) ([3]; T0): 1.57%
HPLC purity % (total caspofungin) ([3]; T0, listed as API (lyo process)): 95.82% and 95.42%
KF water content % [4]: 6.16% and 3.94%
MEC [5]: 0.0625 µg/mL
MEC [6]: 0.125 µg/mL
MIC [7]: 0.25 µg/mL
MIC ([8]; Candida albicans ATCC90028): 0.25 µg/mL
MIC ([8]; Candida albicans ATCC90028 + 50% human serum): 0.125 µg/mL
MIC [9]: 0.25 µg/mL
MIC [10]: 0.25 µg/mL
MIC [11]: 0.25 µg/mL
MIC (Candida krusei ATCC 6258): 1 µg/mL
MIC [12]: 1 µg/mL
MIC [13]: 0.25 µg/mL
MIC [14]: 16 µg/mL
MEC [15]: 0.125 µg/mL
